Measurements published in patent US10856562B2, “Flavor composition and edible compositions containing same” (MARS, INCORPORATED, priority 2013, dated 2020).
Entries after “also recorded” stand apart in the source; their conditions may differ. Square brackets hold non-standard residues; d marks the D form. Ends that are not written are not given here. pGlu = O=C1CC[C@@H](C(=O)O)N1

How the values were obtained:
[1] = system: panelists; assay: Increased salt perception protocol: salt 5 reference (0.35% salt solution) re-tasted after expectoration of test sample; assay type: in vivo, human; conditions: for Astringent, after-expectoration perception / Bitter, after-expectoration perception / Flinty/Mineral, after-expectoration perception / Metallic, after-expectoration perception / Numbing, after-expectoration perception / Salt, after-expectoration perception (mean salt perception after expectoration) / Sour, after-expectoration perception / Sweet, after-expectoration perception: salt 5 reference re-tasted, mean score; for Salt perception after expectoration as the concentration increases: 0.1 to 40.0/50.0 ppb in 0.2% NaCl; for Salt perception from in-mouth to after expectoration: all samples
From the text: 1. Each panelist tasted a salt reference (0.35% salt solution) with a reference salt intensity of 5.0 which provided a baseline for each panelist for salt intensity. 2. Each panelist tasted a test sample (0.1 ppb, 0.5 ppb, 1.0 ppb, 10.0 ppb or 40.0 ppb all in 0.2% NaCl solution). Only one sample was tasted per session. 3. Each panelist re-tasted the salt reference (5.0 intensity) and rated it for salt intensity as well as any other basic taste, chemical feeling factor, or aromatic perceived. Thus, any increased salt perception as a result of the test sample would be determined, as well as any other perceptions present. Attribute Perception Protocol • The panelists evaluated each sample using the following procedure • Descriptive Profiles (flavor and chemical feeling factors) of 5 levels of salt enhancing solutions • Individual data was collected for the flavor and chemical feeling factors of the product in-mouth • Increased Salt Perception Protocol • Each panelist tasted salt 5 reference (0.35% salt solution)—to ground themselves on salt intensity of 5.0. • Each panelist tasted the test sample (0.1 ppb, 0.5 ppb, 1.0 ppb, 10.0 ppb or 40.0/50.0 ppb all in 0.2% NaCl solution: only one per session) • Each panelist then re-tasted the salt 5 reference and rated it for salt intensity as well as any other basic taste, chemical feeling factor, or aromatic perceived. This captured any increased salt perception indicated by the test sample as well as any other perceptions present. • Return to Baseline Protocol • After evaluating the sample for salt & other perceptions, panelists re-tasted the salt 5 reference at 1 minute intervals until their perception of the salt 5 saltiness intensity had returned to 5.0. Each panelist recorded their salt intensity at each interval and took qualitative notes on other perceptions seen in aftertaste. Sample Preparation

[2] = system: panelists; assay: Return to baseline protocol: salt reference re-tasted at 1 minute intervals; assay type: in vivo, human; conditions: for Time needed to return to baseline as the concentration increases: 0.1 to 40.0/50.0 ppb
Method: After evaluating the sample for salt and other perceptions (step 3 above), each panelist re-tasted the salt reference (5.0 intensity) at 1 minute intervals until their perception of the saltiness intensity of the reference returned to 5.0. Each panelist recorded salt intensity at each interval and took qualitative notes on other perceptions seen in aftertaste. Attribute Perception Protocol • The panelists evaluated each sample using the following procedure • Descriptive Profiles (flavor and chemical feeling factors) of 5 levels of salt enhancing solutions • Individual data was collected for the flavor and chemical feeling factors of the product in-mouth • Increased Salt Perception Protocol • Each panelist tasted salt 5 reference (0.35% salt solution)—to ground themselves on salt intensity of 5.0. • Each panelist tasted the test sample (0.1 ppb, 0.5 ppb, 1.0 ppb, 10.0 ppb or 40.0/50.0 ppb all in 0.2% NaCl solution: only one per session) • Each panelist then re-tasted the salt 5 reference and rated it for salt intensity as well as any other basic taste, chemical feeling factor, or aromatic perceived. This captured any increased salt perception indicated by the test sample as well as any other perceptions present. • Return to Baseline Protocol • After evaluating the sample for salt & other perceptions, panelists re-tasted the salt 5 reference at 1 minute intervals until their perception of the salt 5 saltiness intensity had returned to 5.0. Each panelist recorded their salt intensity at each interval and took qualitative notes on other perceptions seen in aftertaste. Sample Preparation

Substance: [pGlu]-Val-Leu [SE-13]
- Astringent, after-expectoration perception ([1]; 0.1 ppb in 0.2% NaCl): 0.0
- Bitter, after-expectoration perception ([1]; 0.1 ppb in 0.2% NaCl): 0.1
- Flinty/Mineral, after-expectoration perception ([1]; 0.1 ppb in 0.2% NaCl): 0.1
- Metallic, after-expectoration perception ([1]; 0.1 ppb in 0.2% NaCl): 0.3
- Numbing, after-expectoration perception ([1]; 0.1 ppb in 0.2% NaCl): 0.0
- Salt, after-expectoration perception (mean salt perception after expectoration) ([1]; 0.1 ppb in 0.2% NaCl): 6.8
- Sour, after-expectoration perception ([1]; 0.1 ppb in 0.2% NaCl): 0.0
- Sweet, after-expectoration perception ([1]; 0.1 ppb in 0.2% NaCl): 0.0
- Level of the aromatics, basic tastes and chemical feeling factors after expectoration with increasing concentration ([1]; 0.1 to 40.0/50.0 ppb): do not increase
- Salt perception after expectoration as the concentration increases [1]: increases slightly; also recorded: slight increase
- Salt perception after expectoration as the concentration increases ([1]; listed as pGlu-Val-Leu): increased slightly
- Astringent, after-expectoration perception ([1]; 0.5 ppb in 0.2% NaCl): 0.0
- Bitter, after-expectoration perception ([1]; 0.5 ppb in 0.2% NaCl): 0.0
- Flinty/Mineral, after-expectoration perception ([1]; 0.5 ppb in 0.2% NaCl): 0.1
- Metallic, after-expectoration perception ([1]; 0.5 ppb in 0.2% NaCl): 0.3
- Numbing, after-expectoration perception ([1]; 0.5 ppb in 0.2% NaCl): 0.1
- Salt, after-expectoration perception (mean salt perception after expectoration) ([1]; 0.5 ppb in 0.2% NaCl): 6.4
- Sour, after-expectoration perception ([1]; 0.5 ppb in 0.2% NaCl): 0.0
- Sweet, after-expectoration perception ([1]; 0.5 ppb in 0.2% NaCl): 0.0
- Astringent, after-expectoration perception ([1]; 1.0 ppb in 0.2% NaCl): 0.0
- Bitter, after-expectoration perception ([1]; 1.0 ppb in 0.2% NaCl): 0.0
- Flinty/Mineral, after-expectoration perception ([1]; 1.0 ppb in 0.2% NaCl): 0.2
- Metallic, after-expectoration perception ([1]; 1.0 ppb in 0.2% NaCl): 0.1
- Numbing, after-expectoration perception ([1]; 1.0 ppb in 0.2% NaCl): 0.0
- Salt, after-expectoration perception (mean salt perception after expectoration) ([1]; 1.0 ppb in 0.2% NaCl): 7.5
- Sour, after-expectoration perception ([1]; 1.0 ppb in 0.2% NaCl): 0.0
- Sweet, after-expectoration perception ([1]; 1.0 ppb in 0.2% NaCl): 0.0
- Astringent, after-expectoration perception ([1]; 10.0 ppb in 0.2% NaCl): 0.0
- Bitter, after-expectoration perception ([1]; 10.0 ppb in 0.2% NaCl): 0.0
- Flinty/Mineral, after-expectoration perception ([1]; 10.0 ppb in 0.2% NaCl): 0.1
- Metallic, after-expectoration perception ([1]; 10.0 ppb in 0.2% NaCl): 0.3
- Numbing, after-expectoration perception ([1]; 10.0 ppb in 0.2% NaCl): 0.0
- Salt, after-expectoration perception (mean salt perception after expectoration) ([1]; 10.0 ppb in 0.2% NaCl): 8.2
- Sour, after-expectoration perception ([1]; 10.0 ppb in 0.2% NaCl): 0.0
- Sweet, after-expectoration perception ([1]; 10.0 ppb in 0.2% NaCl): 0.0
- Astringent, after-expectoration perception ([1]; 40.0 ppb in 0.2% NaCl): 0.0
- Bitter, after-expectoration perception ([1]; 40.0 ppb in 0.2% NaCl): 0.0
- Flinty/Mineral, after-expectoration perception ([1]; 40.0 ppb in 0.2% NaCl): 0.3
- Metallic, after-expectoration perception ([1]; 40.0 ppb in 0.2% NaCl): 0.2
- Numbing, after-expectoration perception ([1]; 40.0 ppb in 0.2% NaCl): 0.0
- Salt, after-expectoration perception (mean salt perception after expectoration) ([1]; 40.0 ppb in 0.2% NaCl): 8.3
- Sour, after-expectoration perception ([1]; 40.0 ppb in 0.2% NaCl): 0.0
- Sweet, after-expectoration perception ([1]; 40.0 ppb in 0.2% NaCl): 0.0
- Umami like swelling of lips and tongue, after expectoration ([1]; all levels): Panelists also experience Umami like swelling of lips and tongue
- Salt perception from in-mouth to after expectoration ([1]; 0.1 to 40.0/50.0 ppb): increases after expectoration in all samples; also recorded: noticeable increase
- Salt perception from in-mouth to after expectoration ([1]; 0.1 to 40.0/50.0 ppb, listed as pGlu-Val-Leu): increased after expectoration in all samples
- Mean time needed to return to baseline ([2]; 0.1 ppb in 0.2% NaCl): 7.6 min
- Mean time needed to return to baseline (min.) ([2]; 0.1 ppb in 0.2% NaCl): 7.6 min
- Time needed to return to baseline as the concentration increases [2]: increases notably from 0.1 ppb to 0.5 ppb and from 10.0 ppb to 40.0 ppb; also recorded: does not necessarily increase
- Time needed to return to baseline as the concentration increases ([2]; listed as pGlu-Val-Leu): did not necessarily increase
- Mean time needed to return to baseline ([2]; 0.5 ppb in 0.2% NaCl): 9.5 min
- Mean time needed to return to baseline (min.) ([2]; 0.5 ppb in 0.2% NaCl): 9.5 min
- Mean time needed to return to baseline ([2]; 1.0 ppb in 0.2% NaCl): 8.7 min
- Mean time needed to return to baseline (min.) ([2]; 1.0 ppb in 0.2% NaCl): 8.7 min
- Mean time needed to return to baseline ([2]; 10.0 ppb in 0.2% NaCl): 8.6 min
- Mean time needed to return to baseline (min.) ([2]; 10.0 ppb in 0.2% NaCl): 8.6 min
- Mean time needed to return to baseline ([2]; 40.0 ppb in 0.2% NaCl): 13.1 min
- Mean time needed to return to baseline (min.) ([2]; 40.0 ppb in 0.2% NaCl): 13.1 min
- Time needed to return to baseline, comparison of SE-13, SE-14 and SE-17 ([2]; overall): greatest
